Values after ≈ are worked out from the molar mass of the structure shown. Starred links: 1 amine or outer side, 2 acyl side, 3 side chain; linkers in the order of their positions; H or OH if unused. Positions of bridges follow the written chain, without caps; N, C: chain ends. Non-standard residues stand in square brackets, D forms with d. Residues, ends and D or L forms follow the SMILES beside them. *: point of attachment. Orn(4R-OH,5R-OH) = O=C([C@H](C[C@@H](O)[C@@H](O)N[*:3])N[*:1])[*:2]; hTyr(3S-OH,4S-OH) = N[C@H](C(=O)O)[C@H](O)[C@@H](O)c1ccc(O)cc1; Pro(3S-OH,4S-Me) = C[C@H]1CN[C@H](C(=O)O)[C@H]1O; Benzoyl(4-octyloxy) = CCCCCCCCOc1ccc(C(=O)*)cc1; hTyr = N[C@@H](CCc1ccc(O)cc1)C(=O)O; Hyp = O=C(O)[C@@H]1C[C@@H](O)CN1; Orn = NCCC[C@H](N)C(=O)O
Tests used:
Candida parapsilosis = experiment: Antifungal activity on Candida parapsilosis MY1010; type: functional; conditions: Lodderomyces parapsilosis
Candida tropicalis = experiment: Antifungal activity on Candida tropicalis MY101; type: functional
Candida albicans [1] = experiment: Concentration inhibiting Candida beta-1,3-glucan synthesis was determined in a Candida albicans cell culture; type: functional, organism-based
Candida albicans [2] = experiment: Antifungal activity on Candida albicans MY1028.; type: functional
Candida albicans [3] = experiment: Antifungal activity on Candida albicans MY1055.; type: functional
Candida albicans [4] = experiment: Antifungal activity on Candida albicans MY1208.; type: functional

IC50 (Candida albicans [1]) [µM]	Structure (SMILES)	MFC (Candida parapsilosis) [µg/mL]	MFC (Candida tropicalis) [µg/mL]	MFC (Candida albicans [2]) [µg/mL]	MFC (Candida albicans [3]) [µg/mL]	MFC (Candida albicans [4]) [µg/mL]
10	CCCCCCCCOc1ccc(C(=O)N[C@H]2CCCNC(=O)[C@@H]3CCCN3C(=O)[C@H]([C@@H](C)O)NC(=O)[C@H](CCc3ccc(O)cc3)NC(=O)[C@@H]3C[C@@H](O)CN3C(=O)[C@H]([C@@H](C)O)NC2=O)cc1 ({Benzoyl(4-octyloxy)}-[Orn]T[Hyp][hTyr]TP; lactam 1-C)	8 (≈ 8.55 µM)	0.25 (≈ 0.267 µM)	4 (≈ 4.27 µM)	8 (≈ 8.55 µM)	4 (≈ 4.27 µM)
> 10	CCCCCCCCOc1ccc(C(=O)N[C@H]2CCCNC(=O)[C@@H]3CCCN3C(=O)[C@H]([C@@H](C)O)NC(=O)[C@H](Cc3ccc(O)cc3)NC(=O)[C@@H]3C[C@@H](O)CN3C(=O)[C@H]([C@@H](C)O)NC2=O)cc1 ({Benzoyl(4-octyloxy)}-[Orn]T[Hyp]YTP; lactam 1-C)	> 128	> 128	> 128		> 128
> 10	C[C@@H](O)[C@@H]1NC(=O)[C@H](CCc2ccc(O)cc2)NC(=O)[C@@H]2C[C@@H](O)CN2C(=O)[C@H]([C@@H](C)O)NC(=O)[C@@H](N)CCCNC(=O)[C@H]([C@@H](C)O)NC1=O (H-[Orn]T[Hyp][hTyr]TT; lactam 1-C)	> 128	4 (≈ 5.65 µM)	8 (≈ 11.3 µM)	8 (≈ 11.3 µM)	8 (≈ 11.3 µM)
3	CCCCCCCCOc1ccc(C(=O)N[C@H]2CCCNC(=O)[C@@H]3[C@@H](O)[C@@H](C)CN3C(=O)[C@H]([C@@H](C)O)NC(=O)[C@H](CCc3ccc(O)cc3)NC(=O)[C@@H]3C[C@@H](O)CN3C(=O)[C@H]([C@@H](C)O)NC2=O)cc1 ({Benzoyl(4-octyloxy)}-[Orn]T[Hyp][hTyr]T[Pro(3S-OH,4S-Me)]; lactam 1-C)	8 (≈ 8.28 µM)	1 (≈ 1.04 µM)	2 (≈ 2.07 µM)	1 (≈ 1.04 µM)	2 (≈ 2.07 µM)
10	CCCCCCCCOc1ccc(C(=O)N[C@H]2CCCNC(=O)[C@@H]3C[C@@H](O)CN3C(=O)[C@H]([C@@H](C)O)NC(=O)[C@H](CCc3ccc(O)cc3)NC(=O)[C@@H]3C[C@@H](O)CN3C(=O)[C@H]([C@@H](C)O)NC2=O)cc1 ({Benzoyl(4-octyloxy)}-[Orn]T[Hyp][hTyr]T[Hyp]; lactam 1-C)	> 128	8 (≈ 8.4 µM)	8 (≈ 8.4 µM)	8 (≈ 8.4 µM)	8 (≈ 8.4 µM)
> 10	CCCCCCCCOc1ccc(C(=O)N[C@H]2CCCNC(=O)[C@@H]3C[C@@H](O)CN3C(=O)[C@H]([C@@H](C)O)NC(=O)[C@H](Cc3ccc(O)cc3)NC(=O)[C@@H]3CCCN3C(=O)[C@H]([C@@H](C)O)NC2=O)cc1 ({Benzoyl(4-octyloxy)}-[Orn]TPYT[Hyp]; lactam 1-C)	> 128	> 128	> 128	> 128	> 128
	CCCCCCCCOc1ccc(C(=O)N[C@H]2CCCNC(=O)[C@@H]3[C@@H](O)[C@@H](C)CN3C(=O)[C@H]([C@@H](C)O)NC(=O)[C@H](Cc3ccc(O)cc3)NC(=O)[C@@H]3C[C@@H](O)CN3C(=O)[C@H]([C@@H](C)O)NC2=O)cc1 ({Benzoyl(4-octyloxy)}-[Orn]T[Hyp]YT[Pro(3S-OH,4S-Me)]; lactam 1-C)	> 128	> 128	> 128	> 128	> 128
> 10	CCCCCCCCOc1ccc(C(=O)N[C@H]2CCCNC(=O)[C@@H]3C[C@@H](O)CN3C(=O)[C@H]([C@@H](C)O)NC(=O)[C@H](Cc3ccc(O)cc3)NC(=O)[C@@H]3C[C@@H](O)CN3C(=O)[C@H]([C@@H](C)O)NC2=O)cc1 ({Benzoyl(4-octyloxy)}-[Orn]T[Hyp]YT[Hyp]; lactam 1-C)	> 128	> 128	> 128	> 128	> 128
> 10	CCCCCCCCOc1ccc(C(=O)N[C@H]2CCCNC(=O)[C@@H]3CCCN3C(=O)[C@H]([C@@H](C)O)NC(=O)[C@H](Cc3ccc(O)cc3)NC(=O)[C@@H]3CCCN3C(=O)[C@H]([C@@H](C)O)NC2=O)cc1 ({Benzoyl(4-octyloxy)}-[Orn]TPYTP; lactam 1-C)		> 64	> 64	> 64	> 64

Structure (SMILES)	IC50 (Candida albicans [1]) [µM]	MFC (Candida parapsilosis) [µg/mL]	MFC (Candida tropicalis) [µg/mL]	MFC (Candida albicans [2]) [µg/mL]	MFC (Candida albicans [3]) [µg/mL]	MFC (Candida albicans [4]) [µg/mL]
CCCCCCCCOc1ccc(C(=O)N[C@H]2C[C@@H](O)[C@@H](O)NC(=O)[C@@H]3[C@@H](O)[C@@H](C)CN3C(=O)[C@H]([C@@H](C)O)NC(=O)[C@H]([C@H](O)[C@@H](O)c3ccc(O)cc3)NC(=O)[C@@H]3C[C@@H](O)CN3C(=O)[C@H]([C@@H](C)O)NC2=O)cc1 [CILOFUNGIN] ({Benzoyl(4-octyloxy)}-[Orn(4R-OH,5R-OH)]T[Hyp][hTyr(3S-OH,4S-OH)]T[Pro(3S-OH,4S-Me)]; lactam 1-C)	1	8 (≈ 7.77 µM)	0.5 (≈ 0.485 µM)	0.5 (≈ 0.485 µM)	0.5 (≈ 0.485 µM)	2 (≈ 1.94 µM)
CCCCCCCCOc1ccc(C(=O)N[C@H]2CCCNC(=O)[C@@H]3CCCN3C(=O)[C@H]([C@@H](C)O)NC(=O)[C@H](CCc3ccc(O)cc3)NC(=O)[C@@H]3CCCN3C(=O)[C@H]([C@@H](C)O)NC2=O)cc1 ({Benzoyl(4-octyloxy)}-[Orn]TP[hTyr]TP; lactam 1-C)	> 10	> 128	4 (≈ 4.35 µM)		4 (≈ 4.35 µM)	4 (≈ 4.35 µM)

Reference: ChEMBL document CHEMBL1125503, “Preparation and structure-activity relationships of simplified analogues of the antifungal agent cilofungin: a total synthesis approach” (J Med Chem, 1992)
